Literature values, collected in US9884844B2 (priority 2012, dated 2018).

Conditions: rather increase it at high dose

O=C1NCN(c2ccccc2)C12CCN([C@@H]1CC[C@H]3CCCc4cccc1c43)CC2 [Ro64-6198]
effect on alcohol drinking: failed to decrease alcohol drinking
